{"source": "patent US20100281567A1", "about": "“TRANSGENIC PLANTS HAVING ALTERED LEVELS OF AROMATIC AMINO ACIDS AND METABOLITES DERIVED THEREFROM” (priority 2007, published 2010)", "format_in_all_cases": "in vivo, Arabidopsis thaliana", "key": {"Arabidopsis plants [1]": {"test_system": "Arabidopsis plants", "assay": "Effect of the tryptophan analog 5-methyl tryptophan on growth of transgenic plants", "conditions": "plants p17, p9 and p5 expressing 35S:PRO-TP-PheA*-3HA; 100 μM, three weeks", "description": "FIG. 10 illustrates the effect of tryptophan analog on transgenic plants expressing: (i) the 35S:PRO-TP-PheA*-3HA gene (p5, p9; p17); (ii) dominant mutation, resistant to tryptophan analogs due to high levels of tryptophan (5× normal) and anthranilate synthase (2× normal), amt1-1; (iii) control plants expressing an empty Ti vector (con); and (iv) wild type Arabidopsis Colombia ecotype (col). FIG. 10A: Photograph of plants growing for three weeks on zero and 100 μM 5-methyl tryptophan (5MT). FIG. 10B: Quantitative analysis of the number of seedlings whose growth was arrested by 5MT.\nTo evaluate the biosynthesis level of tryptophan, the effects of tryptophan analog on the transgenic plants of the present invention and on positive-control and control plants were examined. Plants used were as follows: i) plants of the present invention transformed with the 35S:PRO-TP-PheA*-3HA construct; (ii) positive-control transgenic plants having the dominant mutation amt1-1, which are resistant to tryptophan analogs due to high levels of tryptophan (5× normal) and anthranilate synthase (2× normal), the first enzyme of tryptophan biosynthesis; (iii) control plants expressing an empty Ti vector; and (iv) wild type Arabidopsis Colombia ecotype (col). Plants were grown for three weeks on zero and 100 μM 5-methyl tryptophan (5MT)."}, "Arabidopsis plants [2]": {"test_system": "Arabidopsis plants", "assay": "Effect of the HPPD inhibitor Isoxaflutole on growth of control and transgenic Arabidopsis plants", "conditions": "10 ppb Isoxaflutole in MS medium", "description": "Plants were grown on MS medium in the presence of 10 ppb Isoxaflutole. […] FIG. 9A: Chlorophyll content. FIG. 9B: Photograph of the plants.\nWestern blot analysis was performed with anti-HA tag antibodies, in order to identify the mutated plants which are translated the chemeric gene (Stepansky A and Galili G 2003 Plant Physiol 133, 1407-1415). Additionally, T2 generation plants were examined and lines with a single insertion gene were selected based on 3:1 genetic segregation. For testing the growth of the transgenic plants producing elevated concentrations of the compounds of the invention, homozygous PheA* plants were germinated on regular Nitch medium. The 4-Hydroxy-phenylpyruvate dioxygenase (HPPD) inhibitor Isoxaflutole was used as previously described (Rippert P et al. 2004 Plant Physiol., 134:92-100).\nTyrosine is catabolized in plants to a number of metabolites including hydroxyl-phenylpyruvate (p-HPP), homogentistic acid (HGA) and tocopherols. One of the enzymes in the Tyr catabolism pathways is 4-Hydroxy-phenylpyruvate dioxygenase (HPPD), which catalyzes the conversion of p-HPP to HGA. HGA is derived exclusively from the catabolism of tyrosine and is also a substrate for a number of other metabolites, such as tocopherols. […]"}, "Arabidopsis plants [3]": {"test_system": "Arabidopsis plants", "assay": "Sensitivity of germination to external application of phenylalanine", "conditions": "PheA* genotypes compared to control genotype; 4 mM phenylalanine in medium", "description": "FIG. 11A: Morphological phenotype of the control genotype (a, e) and the PheA* expressing genotypes p5 (b, f), p9 (c, g) and p17 (d, h). Plants were at the age of 10 days (a-d) and two months (e-f). FIG. 11B: Seeds of the above control and transgenic plants were germinated on media lacking (left) or containing (right) 4 mM Phe.\nAmino acids are generally toxic to plants when added externally at relatively high concentrations. We therefore also used this trait to further confirm that the PheA* plants overproduce phenylalanine, by testing for sensitivity to external application of phenylalanine."}}, "data": [{"smiles": "Cc1ccc2[nH]cc(C[C@H](N)C(=O)O)c2c1", "note": "[5MT, 5-methyl tryptophan]", "values": [{"measurement": "growth of plants", "setting": "Arabidopsis plants [1]", "value": "strongly inhibited"}]}, {"smiles": "CS(=O)(=O)c1cc(C(F)(F)F)ccc1C(=O)c1cnoc1C1CC1", "note": "[Isoxaflutole]", "values": [{"measurement": "chlorotic symptoms", "setting": "Arabidopsis plants [2]; control plants expressing an empty Ti plasmid", "value": "developed chlorotic symptoms"}, {"measurement": "chlorotic symptoms", "setting": "Arabidopsis plants [2]; transgenic plants expressing 35S:PRO-TP-PheA*-3HA", "value": "remained green"}]}, {"smiles": "N[C@@H](Cc1ccccc1)C(=O)O", "note": "[phenylalanine]", "values": [{"measurement": "germination", "setting": "Arabidopsis plants [3]", "value": "significantly inhibited"}]}]}
